Results: PMC6099886 (Proceedings of the National Academy of Sciences of the …, 2018)
Changes are numbered by the printed parent chain. Numbers in names are those of the source. Read-outs that look alike come from different tables or passages of the source. *1 amine or outer side, *2 acyl side, *3 side chain or, on linkers, in order; H or OH if unused. Where a SMILES comes first, the peptide text is derived from it. Bridges are numbered along the chain shown (N, C = ends). Roman numbers before positions name the chains, in order. [ ]: non-standard residue; d: D form. Actinocin(9to1) = Cc1c2oc3c(C)ccc(C(=O)[*:1])c3nc-2c(C(=O)[*:2])c(N)c1=O; NMeV = CN[C@H](C(=O)O)C(C)C; Sar = CNCC(=O)O

Legend:
DDR2-His = molecular target: T1, DDR2-His (Homo sapiens, UniProt Q16832); test: Solid-phase binding assay of DDR2-His; settings: 25 nM DDR2-His, collagen peptide
T1 sequence (Q16832 22-398): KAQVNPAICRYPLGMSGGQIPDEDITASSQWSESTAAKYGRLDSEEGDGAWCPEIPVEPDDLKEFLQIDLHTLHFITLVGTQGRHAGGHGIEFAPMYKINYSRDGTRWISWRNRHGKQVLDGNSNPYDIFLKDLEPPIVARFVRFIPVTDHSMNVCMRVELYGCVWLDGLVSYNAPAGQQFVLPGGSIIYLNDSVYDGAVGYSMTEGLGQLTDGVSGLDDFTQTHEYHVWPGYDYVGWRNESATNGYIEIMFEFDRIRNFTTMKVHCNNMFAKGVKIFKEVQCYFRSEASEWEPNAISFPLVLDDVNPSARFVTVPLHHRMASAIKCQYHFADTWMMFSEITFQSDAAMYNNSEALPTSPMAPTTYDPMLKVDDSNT

DDR2 = settings: cited from earlier work
[1] = cited from earlier work
4T1 GFP/luc cells = test: Lung colonization after tail vein injection of 4T1 GFP/luc cells in BALB/cJ mice; type: in vivo, mouse; settings: treated daily, 7 d
[2] = molecular target: the molecule itself
cross-linking = molecular target: the molecule itself; test: cross-linking
SEC = molecular target: the molecule itself; test: SEC

Molecule: Cc1c2oc3c(C)ccc(C(=O)N[C@@H]4C(=O)N[C@H](C(C)C)C(=O)N5CCC[C@H]5C(=O)N(C)CC(=O)N(C)[C@@H](C(C)C)C(=O)O[C@@H]4C)c3nc-2c(C(=O)N[C@@H]2C(=O)N[C@H](C(C)C)C(=O)N3CCC[C@H]3C(=O)N(C)CC(=O)N(C)[C@@H](C(C)C)C(=O)O[C@@H]2C)c(N)c1=O [actinomycin D] (I: T[dV]P[Sar][NMeV] / II: T[dV]P[Sar][NMeV]; ester I:1-I:C, II:1-II:C; linker I:N-II:N via Actinocin(9to1))
- DDR2 inhibition in ECD solid-phase binding assay (in words) (DDR2-His): inhibits DDR2
- DDR2 inhibition in previous in vitro screen (DDR2): weak inhibitor
- toxicity profile [1]: high toxicity profile

Molecule: Nc1c(C(=O)O)c2nc3c(C(=O)O)cccc3oc-2cc1=O [cinnabarinic acid]
- DDR2 inhibition in ECD solid-phase binding assay (in words) (DDR2-His): inactive
- lung colonization by 4T1 GFP/luc cells (4T1 GFP/luc cells): no effect

B1: DDR2 F96A/T98A expressed as a full-length receptor in HEK293 cells (receptor, UniProt Q16832 22-855, looked up)
chain: KAQVNPAICRYPLGMSGGQIPDEDITASSQWSESTAAKYGRLDSEEGDGAWCPEIPVEPDDLKEFLQIDLHTLHAIALVGTQGRHAGGHGIEFAPMYKINYSRDGTRWISWRNRHGKQVLDGNSNPYDIFLKDLEPPIVARFVRFIPVTDHSMNVCMRVELYGCVWLDGLVSYNAPAGQQFVLPGGSIIYLNDSVYDGAVGYSMTEGLGQLTDGVSGLDDFTQTHEYHVWPGYDYVGWRNESATNGYIEIMFEFDRIRNFTTMKVHCNNMFAKGVKIFKEVQCYFRSEASEWEPNAISFPLVLDDVNPSARFVTVPLHHRMASAIKCQYHFADTWMMFSEITFQSDAAMYNNSEALPTSPMAPTTYDPMLKVDDSNTRILIGCLVAIIFILLAIIVIILWRQFWQKMLEKASRRMLDDEMTVSLSLPSDSSMFNNNRSSSPSEQGSNSTYDRIFPLRPDYQEPSRLIRKLPEFAPGEEESGCSGVVKPVQPSGPEGVPHYAEADIVNLQGVTGGNTYSVPAVTMDLLSGKDVAVEEFPRKLLTFKEKLGEGQFGEVHLCEVEGMEKFKDKDFALDVSANQPVLVAVKMLRADANKNARNDFLKEIKIMSRLKDPNIIHLLAVCITDDPLCMITEYMENGDLNQFLSRHEPPNSSSSDVRTVSYTNLKFMATQIASGMKYLSSLNFVHRDLATRNCLVGKNYTIKIADFGMSRNLYSGDYYRIQGRAVLPIRWMSWESILLGKFTTASDVWAFGVTLWETFTFCQEQPYSQLSDEQVIENTGEFFRDQGRQTYLPQPAICPDSVYKLMLSCWRRDTKNRPSFQEIHLLLLQQGDE
- stoichiometry N [2]: 2

B2: full-length DDR2 expressed in HEK293 cells (receptor, UniProt Q16832 22-855, looked up)
chain: B1 chain with A75F, A77T
- stoichiometry N (cross-linking): 2

B3: DDR2 F96A/T98A double mutant ECD, His-tagged (domain or fragment, UniProt Q16832 22-399, looked up)
chain: KAQVNPAICRYPLGMSGGQIPDEDITASSQWSESTAAKYGRLDSEEGDGAWCPEIPVEPDDLKEFLQIDLHTLHAIALVGTQGRHAGGHGIEFAPMYKINYSRDGTRWISWRNRHGKQVLDGNSNPYDIFLKDLEPPIVARFVRFIPVTDHSMNVCMRVELYGCVWLDGLVSYNAPAGQQFVLPGGSIIYLNDSVYDGAVGYSMTEGLGQLTDGVSGLDDFTQTHEYHVWPGYDYVGWRNESATNGYIEIMFEFDRIRNFTTMKVHCNNMFAKGVKIFKEVQCYFRSEASEWEPNAISFPLVLDDVNPSARFVTVPLHHRMASAIKCQYHFADTWMMFSEITFQSDAAMYNNSEALPTSPMAPTTYDPMLKVDDSNTR
- stoichiometry N (SEC): 2
